Values joined by “and” are separate entries in the source; they are usually repeats but may differ in a detail not shown here. Equal values may be shown once.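 All cell lines were grown in 96-well plates and treated with compound for 48 hours. GI50: concentration for 50% inhibition of growth. TGI marks complete inhibition of growth.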
Assays:
Experiment in all cases: NCI-60 cell line screen, 48 h
SF-268 CNS = system: SF-268 CNS
UO-31 renal = system: UO-31 renal
M14 melanoma = system: M14 melanoma
NCI-H226 lung = system: NCI-H226 lung
LOX IMVI melanoma = system: LOX IMVI melanoma
IGROV1 ovarian = system: IGROV1 ovarian
SNB-75 CNS = system: SNB-75 CNS
UACC-62 melanoma = system: UACC-62 melanoma
SF-295 CNS = system: SF-295 CNS
ACHN renal = system: ACHN renal

Row | SMILES | TGI (SF-268 CNS) [µM] | TGI (UO-31 renal) [µM] | TGI (M14 melanoma) [µM] | TGI (NCI-H226 lung) [µM] | TGI (LOX IMVI melanoma) | TGI (IGROV1 ovarian) [µM] | TGI (SNB-75 CNS) | TGI (UACC-62 melanoma) | TGI (SF-295 CNS) | TGI (ACHN renal) [µM] | GI50 (SF-268 CNS) [µM] | GI50 (UO-31 renal) [µM] | GI50 (M14 melanoma) [µM] | GI50 (NCI-H226 lung) [µM] | GI50 (LOX IMVI melanoma) [µM] | GI50 (IGROV1 ovarian) [µM] | GI50 (SNB-75 CNS) [µM] | GI50 (UACC-62 melanoma) [µM] | GI50 (SF-295 CNS) [µM] | GI50 (ACHN renal) [µM]
1 | CN(C)C(=S)/N=c1\ss/c(=N\C(=S)N(C)C)n1-c1ccc2c(c1)OCO2 | > 100 | > 100 | > 100 | > 100 | > 100 µM | > 100 | > 100 µM | > 100 µM | > 100 µM | > 100 |  |  |  |  |  |  |  |  |  | 
2 | CCCNC(=S)N/N=C(\C)c1ccccn1 | > 51.1 | > 82.8 | 3.65 | 4.79 | > 100 µM | > 100 | > 25.7 µM | 3.28 µM | > 100 µM | > 100 | 0.226 | 0.293 | 0.0681 | 0.291 | 0.0436 | < 0.01 | 1.5 | 0.192 | 0.294 | 0.0394
3 | O=C1C2=C(CC3C(C2)C3(Br)Br)C(=O)C2=C1CC1C(C2)C1(Br)Br (stereo not given) | > 100 | > 100 | > 100 | > 100 | > 100 µM | > 100 | > 100 µM | > 100 µM | > 100 µM | > 100 |  |  |  |  |  |  |  |  |  | 
4 | Cc1cc(C2CCCCC2)n(O)c(=O)c1 | > 100 | > 100 |  | > 100 | 80.3 µM and 80.1 µM | > 100 | > 100 µM and 58.1 µM | 8.85 µM and 18.6 µM | 86.8 µM and > 100 µM | > 100 | 1.27 | 0.552 | 1.39 | 2.2 | 0.757 | 0.989 | 1.96 | 0.873 | 0.81 | 1.06
5 | CCC(C)(O)c1cn(-c2cccc(S(=O)(=O)O)c2)nn1 (stereo not given) | > 100 | > 100 | > 100 | > 100 | > 100 µM | > 100 | > 100 µM | > 100 µM | > 100 µM | > 100 |  |  |  |  |  |  |  |  |  | 
6 | CC(=O)c1ccc(NC(=O)/C(Cc2ccccn2)=N/NC(=O)C[N+](C)(C)C)cc1 | > 100 | > 100 | > 100 | > 100 | > 100 µM | > 100 | > 100 µM | > 100 µM | > 100 µM | > 100 |  |  |  |  |  |  |  |  |  | 
7 | Cc1[nH]c(N=Nc2ccccc2)nc1N=Nc1ccccc1 | 11.5 | 13 | 4.49 | 12.4 | 20.9 µM | 5.15 | 12.5 µM | 4.34 µM | 11.6 µM | 7.89 | 2.45 | 1.34 | 2 | 2.7 | 2.72 | 1.6 | 1.66 | 1.83 | 1.93 | 2.15
8 | CCC1(O)C(=O)OCc2c1cc1n(c2=O)Cc2cc3c(N)cccc3nc2-1 (stereo not given) | 0.579 | 0.126 | 0.0872 | 0.0597 | 0.23 µM | 6.23 | 0.251 µM | 0.0345 µM | 2.01 µM | 0.157 |  |  | < 0.01 |  |  |  |  |  |  | 
9 | O=C(O)c1cc(N=Nc2ccc([As](=O)(O)O)cc2)ccc1O | > 100 | > 100 | > 100 | > 100 | > 100 µM | > 100 | > 100 µM | > 100 µM | > 100 µM | > 100 |  |  |  |  |  |  |  |  |  | 
10 | O=C(O)C1C(C(=O)O)C(C(=O)O)C1C(=O)O (stereo not given) | > 100 | > 100 | > 100 | > 100 | > 100 µM | > 100 | > 100 µM | > 100 µM | > 100 µM | > 100 |  |  |  |  |  |  |  |  |  | 
11 | COc1ccc(-n2c(SCc3cc(OC)c(OC)c(OC)c3)nc3ccc(C)cc3c2=O)cc1 | > 100 | > 100 | > 100 | > 100 | > 100 µM | > 100 | > 100 µM | > 100 µM | > 100 µM | > 100 | 55.2 | 5.56 | 4.26 | > 100 | 17.2 | > 100 | 2.76 | 6.82 | 4.36 | 42.9
12 | COc1ccc(/C(=N/Nc2ccc([N+](=O)[O-])cc2)Sc2cc(Cl)c(C)cc2S(N)(=O)=O)cc1 | 19.9 | > 41.7 | 15.3 | 9.63 | 10.4 µM | > 93.2 | 6.39 µM | 8.54 µM | 8.78 µM | 17.5 | 6.66 | 8.49 | 5.75 | 3.52 | 3.68 | 9.65 | 2.68 | 3.02 | 3.31 | 6.34
13 | CC(=O)NC(CCCN)C(=O)NCc1ccccc1 (stereo not given) | > 100 | > 100 | > 100 | > 100 | > 100 µM | > 100 | > 100 µM | > 100 µM | > 100 µM | > 100 |  |  |  |  |  |  |  |  |  | 
14 | COc1ccc(OC)c(/C=C/NC=O)c1 | > 100 | > 100 | > 100 | > 100 | > 100 µM | > 100 | > 100 µM | > 100 µM | > 100 µM | > 100 |  |  |  |  |  |  |  |  |  | 
15 | C[C@]12CC[C@@H]3c4ccc(O)cc4CC[C@H]3[C@@H]1CC[C@@H]2NS(=O)(=O)c1ccc(C(F)(F)F)cc1 | 11.8 | 3.43 | 3.6 | 3.2 | 3.06 µM | 6.23 | 3.6 µM | 3.55 µM | 3.9 µM | 3.06 | 3.1 | 1.6 | 1.9 | 1.68 | 1.68 | 2.45 | 1.67 | 1.83 | 1.91 | 1.63
16 | COC(=O)[C@]12CCC(C)(C)C[C@H]1C1=CC[C@@H]3[C@@]4(C)C/C(=C/c5cccnc5)C(=O)C(C)(C)[C@@H]4CC[C@@]3(C)[C@]1(C)CC2 | 54 | 24.4 | 13.4 | 17.9 | 17.8 µM | 31.5 | 48.5 µM | 12.8 µM | 40.4 µM | 24.5 | 11.8 | 3.21 | 3.63 | 3.97 | 4.63 | 5.2 | 17.6 | 2.89 | 9.67 | 8.05
